From the supplement of paper PMC10307832

Experiments:
Assay in all cases: relative viability (nuclei count vs DMSO), 5 days (fraction); higher = more cells survive
ChaGo-K-1 = test system: ChaGo-K-1
Procedure, shortened: (§1)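 Medians of duplicate plates are given as relative viability. That measure is the nuclei count in treated wells divided by the count in vehicle wells. Counts were taken on 4× images of lung cancer cell lines in 1536-well plates, 5 days after pin-tool dosing the day after seeding with one drug alone or a fixed anchor-drug dose plus five library-drug doses (not always all listed) in √10 steps.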

EMC-BAC-2 = test system: EMC-BAC-2
Procedure, shortened: as §1

EPLC-272H = test system: EPLC-272H
Procedure, shortened: as §1

H3255 = test system: H3255
Procedure, shortened: as §1

HCC-44 = test system: HCC-44
Procedure, shortened: as §1

HCC-827 = test system: HCC-827
Procedure, shortened: as §1

LCLC-103H = test system: LCLC-103H
Procedure, shortened: as §1

LCLC-97TM1 = test system: LCLC-97TM1
Procedure, shortened: as §1

NCI-H1355 = test system: NCI-H1355
Procedure, shortened: as §1

NCI-H1395 = test system: NCI-H1395
Procedure, shortened: as §1

NCI-H1651 = test system: NCI-H1651
Procedure, shortened: as §1

NCI-H1793 = test system: NCI-H1793
Procedure, shortened: as §1

NCI-H1944 = test system: NCI-H1944
Procedure, shortened: as §1

NCI-H2023 = test system: NCI-H2023
Procedure, shortened: as §1

NCI-H2085 = test system: NCI-H2085
Procedure, shortened: as §1

NCI-H2087 = test system: NCI-H2087
Procedure, shortened: as §1

NCI-H2405 = test system: NCI-H2405
Procedure, shortened: as §1

NCI-H322M = test system: NCI-H322M
Procedure, shortened: as §1

NCI-H520 = test system: NCI-H520
Procedure, shortened: as §1

NCI-H650 = test system: NCI-H650
Procedure, shortened: as §1

SK-MES-1 = test system: SK-MES-1
Procedure, shortened: as §1

UMC-11 = test system: UMC-11
Procedure, shortened: as §1

What does the source list for `C=C1C(=O)O[C@@H](CCCCCCCC)[C@@H]1C(=O)O` [C-75] + Cc1cc(Nc2cc(N3CCN(C)CC3)nc(Sc3ccc(NC(=O)C4CC4)cc3)n2)n[nH]1 [Tozasertib] (partner 0.1 µM)?
relative viability (ChaGo-K-1; first compound 0.08 µM): 0.215; relative viability (ChaGo-K-1; first compound 0.253 µM): 0.223; relative viability (ChaGo-K-1; first compound 0.8 µM): 0.196; relative viability (ChaGo-K-1; first compound 2.53 µM): 0.195; relative viability (ChaGo-K-1; first compound 8 µM): 0.231; relative viability (EMC-BAC-2; first compound 0.08 µM): 0.279; relative viability (EMC-BAC-2; first compound 0.253 µM): 0.288; relative viability (EMC-BAC-2; first compound 0.8 µM): 0.294; relative viability (EMC-BAC-2; first compound 2.53 µM): 0.235; relative viability (EMC-BAC-2; first compound 8 µM): 0.315; relative viability (EPLC-272H; first compound 0.08 µM): 0.299; relative viability (EPLC-272H; first compound 0.253 µM): 0.243; relative viability (EPLC-272H; first compound 0.8 µM): 0.22; relative viability (EPLC-272H; first compound 2.53 µM): 0.25; relative viability (EPLC-272H; first compound 8 µM): 0.208; relative viability (H3255; first compound 0.08 µM): 0.609; relative viability (H3255; first compound 0.253 µM): 0.856; relative viability (H3255; first compound 0.8 µM): 0.505; relative viability (H3255; first compound 2.53 µM): 0.701; relative viability (H3255; first compound 8 µM): 0.751; relative viability (HCC-44; first compound 0.08 µM): 0.989; relative viability (HCC-44; first compound 0.253 µM): 0.942; relative viability (HCC-44; first compound 0.8 µM): 0.9; relative viability (HCC-44; first compound 2.53 µM): 0.878; relative viability (HCC-44; first compound 8 µM): 0.714; relative viability (HCC-827; first compound 0.08 µM): 0.428; relative viability (HCC-827; first compound 0.253 µM): 0.413; relative viability (HCC-827; first compound 0.8 µM): 0.431; relative viability (HCC-827; first compound 2.53 µM): 0.379; relative viability (HCC-827; first compound 8 µM): 0.411; relative viability (LCLC-103H; first compound 0.08 µM): 0.597; relative viability (LCLC-103H; first compound 0.253 µM): 0.543; relative viability (LCLC-103H; first compound 0.8 µM): 0.428; relative viability (LCLC-103H; first compound 2.53 µM): 0.514; relative viability (LCLC-103H; first compound 8 µM): 0.406; relative viability (LCLC-97TM1; first compound 0.08 µM): 0.23; relative viability (LCLC-97TM1; first compound 0.253 µM): 0.319; relative viability (LCLC-97TM1; first compound 0.8 µM): 0.22; relative viability (LCLC-97TM1; first compound 2.53 µM): 0.16; relative viability (LCLC-97TM1; first compound 8 µM): 0.187; relative viability (NCI-H1355; first compound 0.08 µM): 0.595; relative viability (NCI-H1355; first compound 0.253 µM): 0.579; relative viability (NCI-H1355; first compound 0.8 µM): 0.522; relative viability (NCI-H1355; first compound 2.53 µM): 0.554; relative viability (NCI-H1355; first compound 8 µM): 0.517; relative viability (NCI-H1395; first compound 0.08 µM): 0.73; relative viability (NCI-H1395; first compound 0.253 µM): 0.732; relative viability (NCI-H1395; first compound 0.8 µM): 0.803; relative viability (NCI-H1395; first compound 2.53 µM): 0.669; relative viability (NCI-H1395; first compound 8 µM): 0.795; relative viability (NCI-H1651; first compound 0.08 µM): 0.694; relative viability (NCI-H1651; first compound 0.253 µM): 0.995; relative viability (NCI-H1651; first compound 0.8 µM): 0.706; relative viability (NCI-H1651; first compound 2.53 µM): 0.688; relative viability (NCI-H1651; first compound 8 µM): 0.682; relative viability (NCI-H1793; first compound 0.08 µM): 0.306; relative viability (NCI-H1793; first compound 0.253 µM): 0.315; relative viability (NCI-H1793; first compound 0.8 µM): 0.344; relative viability (NCI-H1793; first compound 2.53 µM): 0.258; relative viability (NCI-H1793; first compound 8 µM): 0.335; relative viability (NCI-H1944; first compound 0.08 µM): 0.256; relative viability (NCI-H1944; first compound 0.253 µM): 0.235; relative viability (NCI-H1944; first compound 0.8 µM): 0.243; relative viability (NCI-H1944; first compound 8 µM): 0.246; relative viability (NCI-H2023; first compound 0.08 µM): 0.407; relative viability (NCI-H2023; first compound 0.253 µM): 0.443; relative viability (NCI-H2023; first compound 0.8 µM): 0.302; relative viability (NCI-H2023; first compound 2.53 µM): 0.384; relative viability (NCI-H2023; first compound 8 µM): 0.409; relative viability (NCI-H2085; first compound 0.08 µM): 0.798; relative viability (NCI-H2085; first compound 0.253 µM): 0.746; relative viability (NCI-H2085; first compound 0.8 µM): 0.79; relative viability (NCI-H2085; first compound 2.53 µM): 0.803; relative viability (NCI-H2085; first compound 8 µM): 0.67; relative viability (NCI-H2087; first compound 0.08 µM): 0.245; relative viability (NCI-H2087; first compound 0.253 µM): 0.294; relative viability (NCI-H2087; first compound 0.8 µM): 0.179; relative viability (NCI-H2087; first compound 2.53 µM): 0.228; relative viability (NCI-H2087; first compound 8 µM): 0.305; relative viability (NCI-H2405; first compound 0.08 µM): 0.747; relative viability (NCI-H2405; first compound 0.253 µM): 0.683; relative viability (NCI-H2405; first compound 0.8 µM): 0.756; relative viability (NCI-H2405; first compound 2.53 µM): 0.772; relative viability (NCI-H2405; first compound 8 µM): 0.81; relative viability (NCI-H322M; first compound 0.08 µM): 0.46; relative viability (NCI-H322M; first compound 0.253 µM): 0.453; relative viability (NCI-H322M; first compound 0.8 µM): 0.458; relative viability (NCI-H322M; first compound 2.53 µM): 0.302; relative viability (NCI-H322M; first compound 8 µM): 0.487; relative viability (NCI-H520; first compound 0.08 µM): 0.428; relative viability (NCI-H520; first compound 0.253 µM): 0.393; relative viability (NCI-H520; first compound 0.8 µM): 0.395; relative viability (NCI-H520; first compound 2.53 µM): 0.295; relative viability (NCI-H520; first compound 8 µM): 0.46; relative viability (NCI-H650; first compound 0.08 µM): 0.759; relative viability (NCI-H650; first compound 0.253 µM): 0.651; relative viability (NCI-H650; first compound 0.8 µM): 0.718; relative viability (NCI-H650; first compound 2.53 µM): 0.616; relative viability (NCI-H650; first compound 8 µM): 0.62; relative viability (SK-MES-1; first compound 0.08 µM): 0.924; relative viability (SK-MES-1; first compound 0.253 µM): 0.989; relative viability (SK-MES-1; first compound 0.8 µM): 0.823; relative viability (SK-MES-1; first compound 2.53 µM): 0.863; relative viability (SK-MES-1; first compound 8 µM): 0.898; relative viability (UMC-11; first compound 0.08 µM): 0.213; relative viability (UMC-11; first compound 0.253 µM): 0.202; relative viability (UMC-11; first compound 0.8 µM): 0.209; relative viability (UMC-11; first compound 2.53 µM): 0.161; relative viability (UMC-11; first compound 8 µM): 0.227
